Reference: US9994556B2, “Triazole modified coumarin and biphenyl amide-based HSP90 inhibitors” (THE UNIVERSITY OF KANSAS, priority 2014, dated 2018)
Read-outs that look alike come from different tables or passages of the source.

Legend:
Format in all cases: cell-based
MDA-MB-468LN cell line = assay: Promega CellTiter-Glo (CTG) luminescent assay, MDA-MB-468LN; conditions: Homo sapiens, 72 hr, mean ± standard deviation
Description: (§1) b) Promega CellTiter-Glo (CTG) Luminescent Assay
(§2) Antiproliferative activities against MDA-MB-468LN, MDA1986 and JMAR cell lines were performed with 384-well white plates with the Promega CellTiter-Glo (CTG) luminescent assay with 72 hr compound treatment. Data analysis was performed using GraphPad Prism. Selected data were further checked with MTS/PMS cell viability assay with 96-well plates, which correlated well with Promega CellTiter-Glo luminescent assay.

JMAR cell line = assay: Promega CellTiter-Glo (CTG) luminescent assay, JMAR; conditions: 72 hr, mean ± standard deviation
Description: as §1, §2

PC3-MM2 cells = assay: Sulforhodamine B assay, PC3-MM2; conditions: Homo sapiens, PC3MM2, mean ± standard deviation
Description: (§3) c) Sulforhodamine B Assay
(§4) The sulforhodamine B assay is used to measure drug-induced cytotoxicity and cell proliferation for large-scale drug-screening applications. Its principle is based on the ability of the protein dye sulforhodamine B to bind electrostatically on pH dependent protein basic amino acid residues of trichloroacetic acid-fixed cells. The aim is to evaluate samples showing selective growth inhibition or cell killing of particular tumor cell lines.
(§5) The SRB assay is performed by treating cells using a 10 point dose-response curve. The cells are fixed with trichloroacetic acid solution and stained with sulforhodamine B dye. The stained cells are then solubilized with 10 mM Tris buffer and read for absorbance at 565 nm.
(§6) Percentage growth is calculated at each of the drug concentration levels using the absorbance raw data.
(§7) Percentage growth inhibition is calculated as: [(Ti−Tz)/(C−Tz)]×100 for concentrations for which Ti≥Tz. [(Ti−Tz)/(Tz)]×100 for concentrations for which Ti<Tz.
(§8) Ti=Absorbance of wells at a given drug concentration level.
(§9) Tz=Absorbance time zero wells
(§10) C=Absorbance of untreated wells (media and cells only)
(§11) After growth inhibition values have been calculated, the data is plotted on Graphpad Prism software. Data is entered and plotted on a sigmoidal dose-response curve using non-linear regression.

LNCaP cells = assay: Sulforhodamine B assay, LNCaP; conditions: Homo sapiens, mean ± standard deviation
Description: as §3, §4, §5, §6, §7, §8, §9, §10, §11

MDA1986 cell line = assay: Promega CellTiter-Glo (CTG) luminescent assay, MDA1986
Description: as §1, §2

MCF-7 cells = assay: MTS/PMS cell viability assay, MCF-7; conditions: Homo sapiens, MCF7, 72 hr, mean ± standard deviation, read-out: IC50 MCF-7
Description: (§12) a) MTS/PMS Cell Viability Assay (SKBr3 and MCF-7 Cells)
(§13) Cells were maintained in a 1:1 mixture of Advanced DMEM/F12 (Gibco) supplemented with non-essential amino acids, L-glutamine (2 mM), streptomycin (500 μg/mL), penicillin (100 units/mL), and 10% FBS. Cells were grown to confluence in a humidified atmosphere (37° C., 5% CO2), seeded (2000/well, 100 μL) in 96-well plates, and allowed to attach overnight. Compound at varying concentrations in DMSO (1% DMSO final concentration) was added, and cells were returned to the incubator for 72 hr. At 72 hr, the number of viable cells was determined using an MTS/PMS cell proliferation kit (Promega) per the manufacturer's instructions. Cells incubated in 1% DMSO were used at 100% proliferation, and values were adjusted accordingly. IC50 values were calculated from separate experiments performed in triplicate using GraphPad Prism.

SKBr3 cells = assay: MTS/PMS cell viability assay, SKBr3; conditions: Homo sapiens, SK-BR-3
Description: as §12, §13

[1] = Table 1 coumarin-based triazoles
[2] = Table 1 coumarin-based triazoles, 72 hr, mean ± standard deviation, read-out: IC50 MDA1986
[3] = Table 1 coumarin-based triazoles, 72 hr, mean ± standard deviation, at least two experiments in triplicate, read-out: IC50 SKBr3
[4] = Table 2 biphenyl triazole analogues
[5] = Table 2 biphenyl triazole analogues, 72 hr, mean ± standard deviation, read-out: IC50 MDA1986
[6] = Table 2 biphenyl triazole analogues, 72 hr, mean ± standard deviation, read-out: IC50 SKBr3

Structure (SMILES) | IC50 (MDA-MB-468LN cell line; [1]) [µM] | IC50 (JMAR cell line; [1]) [µM] | IC50 (PC3-MM2 cells; [1]) [µM] | IC50 (LNCaP cells; [1]) [µM] | IC50 (MDA1986 cell line; [2]) [µM] | IC50 (MCF-7 cells; [1]) [µM] | IC50 (SKBr3 cells; [3]) [µM] | IC50 (MDA-MB-468LN cell line; [4]) [µM] | IC50 (JMAR cell line; [4]) [µM] | IC50 (PC3-MM2 cells; [4]) [µM] | IC50 (LNCaP cells; [4]) [µM] | IC50 (MDA1986 cell line; [5]) [µM] | IC50 (MCF-7 cells; [4]) [µM] | IC50 (SKBr3 cells; [6]) [µM] | IC50 (MDA1986 cell line; read-out: IC50 against MDA1986 cell line) [µM] | IC50 (SKBr3 cells; read-out: IC50 against SKBr3 cell line) [µM]
Cc1c(OC2CCN(C)CC2)ccc2cc(NC(=O)c3cn(Cc4cccc(Cl)c4)nn3)c(=O)oc12 [4n, 1-(3-Chlorobenzyl)-N-(8-methyl-7-((1-methylpiperidin-4-yl)oxy)-2-oxo-2H-chromen-3-yl)-1H-1,2,3-triazole-4-carboxamide] | 1.14 ± 1.17 | 0.19 ± 0.1 | 6 ± 1.13 | 3.03 ± 0.05 | 0.23 ± 0.22 | 1.68 ± 0.01 | 1.06 ± 0.01 |  |  |  |  |  |  |  |  | 
COc1cccc(Cn2cc(C(=O)Nc3ccc(-c4ccc(OC5CCN(C)CC5)cc4)cc3)nn2)c1 [5l, 1-(3-Methoxybenzyl)-N-(4′-((1-methylpiperidin-4-yl)oxy)-[1,1′-biphenyl]-4-yl)-1H-1,2,3-triazole-4-carboxamide] |  |  |  |  |  |  |  | 0.19 ± 0.05 | 0.21 ± 0.12 | 0.55 ± 0.37 | 0.16 | 0.28 ± 0.09 | 0.16 ± 0.02 | 0.32 ± 0.02 |  | 
Cc1c(OC2CCN(C)CC2)ccc2cc(NC(=O)c3cn(Cc4ccc(Br)cc4)nn3)c(=O)oc12 [4h, 1-(4-Bromobenzyl)-N-(8-methyl-7-((1-methylpiperidin-4-yl)oxy)-2-oxo-2H-chromen-3-yl)-1H-1,2,3-triazole-4-carboxamide] | 2.1 ± 0.6 | 1.6 ± 0.31 | 3.8 ± 1.42 | 4.96 ± 0.67 | 2 ± 0.5 | 1.36 ± 0.08 | 0.73 ± 0.01 |  |  |  |  |  |  |  |  | 
CN1CCC(Oc2ccc(-c3ccc(NC(=O)c4cn(Cc5ccccc5Cl)nn4)cc3)cc2)CC1 [5m, 1-(2-Chlorobenzyl)-N-(4′-((1-methylpiperidin-4-yl)oxy)-[1,1′-biphenyl]-4-yl)-1H-1,2,3-triazole-4-carboxamide] |  |  |  |  |  |  |  | 0.22 ± 0.03 | 0.65 | 1.04 ± 0.51 | 0.61 ± 0.34 | 0.81 ± 0.05 | 0.38 ± 0.03 | 0.34 ± 0.04 |  | 
CN1CCC(Oc2ccc(-c3ccc(NC(=O)c4cn(Cc5ccc(F)cc5)nn4)cc3)cc2)CC1 [5j, 1-(4-Fluorobenzyl)-N-(4′-((1-methylpiperidin-4-yl)oxy)-[1,1′-biphenyl]-4-yl)-1H-1,2,3-triazole-4-carboxamide] |  |  |  |  |  |  |  | 1.09 ± 0.23 | 1.39 ± 0.52 | 2.81 ± 1.82 | 1.64 ± 0.97 | 0.93 ± 0.34 | 1.04 ± 0.08 | 0.72 ± 0.18 |  | 
CN1CCC(Oc2ccc(-c3ccc(NC(=O)c4cn(Cc5ccc(Br)cc5)nn4)cc3)cc2)CC1 [5e, 1-(4-Bromobenzyl)-N-(4′-((1-methylpiperidin-4-yl)oxy)-[1,1′-biphenyl]-4-yl)-1H-1,2,3-triazole-4-carboxamide] |  |  |  |  |  |  |  | 2.8 ± 0.61 | 7.8 | 19.9 ± 27.9 | 0.54 ± 0.12 | 3.1 ± 0.87 | 0.56 ± 0.04 | 0.49 ± 0.03 |  | 
Cc1ccc(Cn2cc(C(=O)Nc3ccc(-c4ccc(OC5CCN(C)CC5)cc4)cc3)nn2)c(Cl)c1 [5n, 1-(2-Chloro-4-methylbenzyl)-N-(4′-((1-methylpiperidin-4-yl)oxy)-[1,1′-biphenyl]-4-yl)-1H-1,2,3-triazole-4-carboxamide] |  |  |  |  |  |  |  | 0.15 ± 0.02 | 0.43 ± 0.25 | 0.35 ± 0.12 | 0.05 ± 0.04 | 0.15 ± 0.06 | 0.2 ± 0.05 | 0.16 ± 0.01 |  | 
Cc1c(OC2CCN(C)CC2)ccc2cc(NC(=O)c3cn(Cc4ccc(Cl)cc4)nn3)c(=O)oc12 [4g, 1-(4-Chlorobenzyl)-N-(8-methyl-7-((1-methylpiperidin-4-yl)oxy)-2-oxo-2H-chromen-3-yl)-1H-1,2,3-triazole-4-carboxamide] | 2.2 ± 0.3 | 1.7 ± 0.2 | 3.67 ± 1.38 | 4.65 ± 0.71 | 1.7 ± 0.52 | 1.44 ± 0.31 | 1.14 ± 0.19 |  |  |  |  |  |  |  |  | 
CN1CCC(Oc2ccc(-c3ccc(NC(=O)c4cn(Cc5ccc(C(C)(C)C)cc5)nn4)cc3)cc2)CC1 [5h, 1-(4-tert-Butylbenzyl)-N-(4′-((1-methylpiperidin-4-yl)oxy)-[1,1′-biphenyl]-4-yl)-1H-1,2,3-triazole-4-carboxamide] |  |  |  |  |  |  |  | 2.61 ± 0.76 | 3.49 ± 2.05 | > 100 | 1.01 ± 1.39 | 2.34 ± 1.81 | 10.5 ± 0.4 | 3.72 ± 0.68 |  | 
Cc1c(OC2CCN(C)CC2)ccc2cc(NC(=O)c3cn(Cc4ccc([N+](=O)[O-])cc4)nn3)c(=O)oc12 [4l, 1-(4-Nitrobenzyl)-N-(8-methyl-7-((1-methylpiperidin-4-yl)oxy)-2-oxo-2H-chromen-3-yl)-1H-1,2,3-triazole-4-carboxamide] | 0.81 ± 0.23 | 0.26 ± 0.34 | 2.49 ± 0.32 | 1.28 ± 0.71 | 0.18 ± 0.22 | 0.64 | 0.38 |  |  |  |  |  |  |  |  | 
COc1ccc(Cn2cc(C(=O)Nc3cc4ccc(OC5CCN(C)CC5)c(C)c4oc3=O)nn2)cc1 [4j, 1-(4-Methoxybenzyl)-N-(8-methyl-7-((1-methylpiperidin-4-yl)oxy)-2-oxo-2H-chromen-3-yl)-1H-1,2,3-triazole-4-carboxamide] | 3.4 ± 1.27 | 6.7 | 7.85 ± 0.42 | > 100 | 2.6 ± 0.3 | 1.42 ± 0.14 | 1.31 ± 0.2 |  |  |  |  |  |  |  |  | 
CN1CCC(Oc2ccc(-c3ccc(NC(=O)c4cn(Cc5ccc(Cl)cc5)nn4)cc3)cc2)CC1 [5d, 1-(4-Chlorobenzyl)-N-(4′-((1-methylpiperidin-4-yl)oxy)-[1, 1′-biphenyl]-4-yl)-1H-1,2,3-triazole-4-carboxamide] |  |  |  |  |  |  |  | 0.74 ± 0.19 | 2.3 ± 0.82 | 0.66 ± 0.21 | 1.59 ± 0.78 | 1.3 ± 0.37 | 0.44 ± 0.04 | 0.32 ± 0.1 |  | 
Cc1c(OC2CCN(C)CC2)ccc2cc(NC(=O)c3cn(CCc4ccccc4)nn3)c(=O)oc12 [4r, N-(8-methyl-7-((1-methylpiperidin-4-yl)oxy)-2-oxo-2H-chromen-3-yl)-1-phenethyl-1H-1,2,3-triazole-4-carboxamide] | 0.99 ± 0.1 | 0.74 ± 0.86 | 1.4 ± 0.04 | 2.36 ± 0.53 | 0.11 ± 0.3 | 0.55 ± 0.01 | 0.13 ± 0.01 |  |  |  |  |  |  |  | ~0.11 | 0.13
Cc1c(OC2CCN(C)CC2)ccc2cc(NC(=O)c3cn(Cc4ccc(F)cc4)nn3)c(=O)oc12 [4m, 1-(4-Fluorobenzyl)-N-(8-methyl-7-((1-methylpiperidin-4-yl)oxy)-2-oxo-2H-chromen-3-yl)-1H-1,2,3-triazole-4-carboxamide] | 2.6 ± 6.12 | 2.38 ± 5.38 | 8.82 ± 1.14 | 3.31 | 1.77 ± 4.1 | 1.34 ± 0.19 | 1.08 ± 0.01 |  |  |  |  |  |  |  |  | 
CN1CCC(Oc2ccc(-c3ccc(NC(=O)c4cn(-c5ccccc5)nn4)cc3)cc2)CC1 [5a, N-(4′-((1-methylpiperidin-4-yl)oxy)-[1,1′-biphenyl]-4-yl)-1-phenyl-1H-1,2,3-triazole-4-carboxamide] |  |  |  |  |  |  |  | 0.83 ± 0.16 | 2.2 ± 0.24 | 4.26 ± 5.59 | 3.89 ± 1.09 | 1.3 ± 0.09 | 1.44 ± 0.18 | 1.14 ± 0.1 |  | 
Cc1c(OC2CCN(C)CC2)ccc2cc(NC(=O)c3cn(-c4ccc(Cl)cc4)nn3)c(=O)oc12 [4c, 1-(4-chlorophenyl)-N-(8-methyl-7-((1-methylpiperidin-4-yl)oxy)-2-oxo-2H-chromen-3-yl)-1H-1,2,3-triazole-4-carboxamide] | 0.81 ± 0.15 | 0.43 ± 0.38 | 2.79 ± 0.49 | 2.45 ± 0.47 | 0.18 ± 0.11 | 2.04 ± 0.25 | 0.58 ± 0.03 |  |  |  |  |  |  |  |  | 
